Measured values taken from BindingDB's records for PubMed 8102785 (University of Pennsylvania, 1993).
Where a SMILES comes first, the peptide text is derived from it. Bridges are numbered along the chain shown (N, C = ends). [ ]: non-standard residue; d: D form. The star is where a group is joined. ξ: configuration not given here. Phe(4-NO2) = N[C@@H](Cc1ccc([N+](=O)[O-])cc1)C(=O)O; NH(1-naphthylmethyl) = c1ccc2c(CN*)cccc2c1; Phe(4-Cl) = N[C@@H](Cc1ccc(Cl)cc1)C(=O)O; dPhe(4-Cl) = N[C@H](Cc1ccc(Cl)cc1)C(=O)O; 2Nal = N[C@@H](Cc1ccc2ccccc2c1)C(=O)O; 1Nal = N[CH](Cc1cccc2ccccc12)C(=O)O; dNMeF = CN[C@H](Cc1ccccc1)C(=O)O; Thr(3ξ) = CC(O)[C@H](N)C(=O)O; Thr(ol) = C[CH](O)[CH](N)CO; NMeA = CN[C@@H](C)C(=O)O; dNMeA = CN[C@H](C)C(=O)O; Abu = CC[C@H](N)C(=O)O; Ahp = NCCCCCCC(=O)O; ξC = NC(CS)C(=O)O

Molecular target: Somatostatin receptor type 4 (Rattus norvegicus, UniProt P30937)
Sequence (P30937 whole entry): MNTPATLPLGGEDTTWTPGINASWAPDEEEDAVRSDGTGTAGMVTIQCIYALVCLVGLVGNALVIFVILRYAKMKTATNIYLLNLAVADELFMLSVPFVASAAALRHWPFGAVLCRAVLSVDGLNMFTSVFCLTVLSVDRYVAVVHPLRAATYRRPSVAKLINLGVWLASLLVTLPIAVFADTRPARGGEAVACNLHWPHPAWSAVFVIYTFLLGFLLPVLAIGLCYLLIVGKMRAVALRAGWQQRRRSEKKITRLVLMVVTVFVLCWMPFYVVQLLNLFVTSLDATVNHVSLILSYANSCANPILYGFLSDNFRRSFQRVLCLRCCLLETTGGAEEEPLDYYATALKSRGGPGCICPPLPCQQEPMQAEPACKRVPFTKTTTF

| SMILES | Ki [nM] |
| --- | --- |
| CC1NC(=O)C(CCCCN)NC(=O)C(Cc2c[nH]c3ccccc23)NC(=O)C(Cc2ccc(O)cc2)NC(=O)C(NC(=O)C(N)Cc2ccccc2)CSSCC(C(=O)NCc2cccc3ccccc23)NC1=O (stereo not given) [BIM 23034] (H-FCYWKAC-{NH(1-naphthylmethyl)}; disulfide 2-7; configuration not given here) | 0.19 |
| CSCC[C@H](NC(=O)[C@H](C)NC(=O)[C@@H]1CCCN1C(=O)[C@H](CC(N)=O)NC(=O)[C@H](CO)NC(=O)[C@H](CC(N)=O)NC(=O)[C@H](C)NC(=O)[C@@H](N)CO)C(=O)N[C@@H](C)C(=O)N1CCC[C@H]1C(=O)N[C@@H](CCCNC(=N)N)C(=O)N[C@@H](CCC(=O)O)C(=O)N[C@@H](CCCNC(=N)N)C(=O)N[C@@H](CCCCN)C(=O)N[C@@H](C)C(=O)NCC(=O)N[C@H]1CSSC[C@@H](C(=O)O)NC(=O)[C@H](CO)NC(=O)[C@H]([C@@H](C)O)NC(=O)[C@H](Cc2ccccc2)NC(=O)[C@H]([C@@H](C)O)NC(=O)[C@H](CCCCN)NC(=O)[C@H](Cc2c[nH]c3ccccc23)NC(=O)[C@H](Cc2ccccc2)NC(=O)[C@H](Cc2ccccc2)NC(=O)[C@H](CC(N)=O)NC(=O)[C@H](CCCCN)NC1=O [somatostatin-28] | 0.23 |
| CC(C)[C@H](NC(=O)[C@H](CCCCN)NC(=O)[C@@H](Cc1c[nH]c2ccccc12)NC(=O)[C@H](Cc1ccc(O)cc1)NC(=O)[C@H](Cc1ccc([N+](=O)[O-])cc1)NC(=O)[C@H](N)Cc1ccccc1)C(=O)N[C@@H](Cc1ccccc1)C(=O)N[C@H](C(N)=O)[C@@H](C)O [BIM 23066] (H-[dF][Phe(4-NO2)]Y[dW]KVFT-NH2) | 2.4 |
| CC[C@H](NC(=O)[C@@H](N)Cc1ccc(Cl)cc1)C(=O)N[C@@H](Cc1ccc(O)cc1)C(=O)N[C@H](Cc1c[nH]c2ccccc12)C(=O)N[C@@H](CCCCN)C(=O)N[C@H](C(=O)N[C@@H](C)C(=O)N[C@H](Cc1ccccc1)C(N)=O)C(C)C [BIM 23067] (H-[Phe(4-Cl)][Abu]Y[dW]KVA[dF]-NH2) | 15 |
| CC(C)[C@H](NC(=O)[C@H](CCCCN)NC(=O)[C@@H](Cc1c[nH]c2ccccc12)NC(=O)[C@H](Cc1ccc(O)cc1)NC(=O)[C@H](Cc1ccc(Cl)cc1)NC(=O)[C@@H](N)Cc1ccccc1)C(=O)N[C@@H](Cc1ccccc1)C(=O)N[C@H](C)C(N)=O [BIM 23064] (H-F[Phe(4-Cl)]Y[dW]KVF[dA]-NH2) | 17 |
| CC(C)[C@H](NC(=O)[C@H](CCCCN)NC(=O)[C@@H](Cc1c[nH]c2ccccc12)NC(=O)[C@H](Cc1ccc(O)cc1)NC(=O)[C@H](C)NC(=O)[C@H](N)Cc1ccc(Cl)cc1)C(=O)N[C@@H](C)C(=O)N[C@@H](Cc1ccc2ccccc2c1)C(N)=O [CAS_150155-67-2] (H-[dPhe(4-Cl)]AY[dW]KVA[2Nal]-NH2) | 14 |
| CC(O)[C@H](NC(=O)[C@H](CCCCN)NC(=O)[C@@H](Cc1c[nH]c2ccccc12)NC(=O)[C@H](Cc1ccccc1)NC(=O)[C@@H](C)NC(=O)[C@@H](N)Cc1ccccc1)C(=O)N[C@@H](C)C(=O)N[C@H](C(N)=O)[C@@H](C)O (stereo not given in full) [BIM 23051] (H-F[dA]F[dW]K[Thr(3ξ)]AT-NH2) | 53 |
| CC(C)[C@@H]1NC(=O)[C@@H](CCCCN)NC(=O)[C@@H](Cc2c[nH]c3ccccc23)NC(=O)[C@@H](Cc2ccc(O)cc2)NC(=O)[C@@H](C)N(C)C(=O)[C@@H](Cc2ccccc2)NC1=O | 26 |
| CC(C)C1NC(=O)C(CCCCN)NC(=O)C(Cc2c[nH]c3ccccc23)NC(=O)C(Cc2ccc(O)cc2)NC(=O)C(C)N(C)C(=O)C(Cc2ccccc2)NC1=O (stereo not given) [CAS_3086456] | 5.5 |
| C[C@@H](O)[C@@H]1NC(=O)[C@H](CCCCN)NC(=O)[C@@H](Cc2c[nH]c3ccccc23)NC(=O)[C@H](Cc2ccccc2)NC(=O)[C@@H]2CSSCC(NC1=O)C(=O)NCCCCCCC(=O)N2 [(1R,4S,7S,10R,13S,16R)-4-[(R)-1-Hydroxyethyl]-7-(4-aminobutyl)-10-(1H-indole-3-ylmethyl)-13-benzyl-28,29-dithia-2,5,8,11,14,17,25-heptaazabicyclo[14.10.4]triacontane-3,6,9,12,15,18,26-heptone] (cyclo([Ahp]CF[dW]KT[ξC]); disulfide 2-7) | 1.2 |
| CC[C@@H]1NC(=O)[C@H](CCCCN)NC(=O)[C@@H](Cc2c[nH]c3ccccc23)NC(=O)[C@H](Cc2ccc(O)cc2)NC(=O)[C@H](C)N(C)C(=O)[C@H](Cc2ccccc2)NC1=O [BIM-23027] (cyclo([Abu]F[NMeA]Y[dW]K)) | 6.2 |
| CC(O)[C@@H]1NC(=O)[C@@H](CCCCN)NC(=O)[C@H](Cc2c[nH]c3ccccc23)NC(=O)[C@@H](Cc2ccccc2)NC(=O)[C@H](Cc2ccccc2)NC(=O)[C@@H](CC(N)=O)NC(=O)[C@H](CCCCN)NC(=O)[C@@H](NC(=O)CNC(=O)[C@H](C)N)CSSC[C@H](C(=O)O)NC(=O)[C@@H](CO)NC(=O)[C@H]([C@@H](C)O)NC(=O)[C@@H](Cc2ccccc2)NC1=O (stereo partly drawn) [SRIF-D-Trp8] | 0.002 |
| C[C@@H](O)[C@H](NC(=O)[C@H](Cc1ccccc1)NC(=O)[C@@H](NC(=O)[C@H](CCCCN)NC(=O)[C@@H](Cc1c[nH]c2ccccc12)NC(=O)[C@H](Cc1ccccc1)NC(=O)[C@H](Cc1ccccc1)NC(=O)[C@H](N)Cc1ccccc1)[C@@H](C)O)C(N)=O [CAS_133073-82-2] (H-[dF]FF[dW]KTFT-NH2) | 0.002 |

Other lines, results leading:

| Ki [nM] | SMILES |
| --- | --- |
| 3.2 | C[C@@H](O)[C@@H]1NC(=O)[C@H](CCCCN)NC(=O)[C@@H](Cc2c[nH]c3ccccc23)NC(=O)[C@H](Cc2ccccc2)NC(=O)[C@@H]2CCCN2C(=O)[C@H](Cc2ccccc2)NC1=O (cyclo(PF[dW]KTF)) |
| 1.5 | CC(C)C1NC(=O)C(CCCCN)NC(=O)C(Cc2c[nH]c3ccccc23)NC(=O)C(Cc2ccc(O)cc2)NC(=O)C(NC(=O)C(N)Cc2cccc3ccccc23)CSSCC(C(=O)NC(CO)C(C)O)NC1=O (stereo not given) [DC23-60] (H-[1Nal]CYWKVC[Thr(ol)]; disulfide 2-7; configuration not given here) |
| 6 | CC[C@@H]1NC(=O)[C@H](CCCCN)NC(=O)[C@@H](Cc2c[nH]c3ccccc23)NC(=O)[C@H](Cc2ccc(O)cc2)NC(=O)[C@@H](NC(=O)[C@H](N)Cc2ccccc2)CSSC[C@@H](C(=O)N[C@@H](Cc2ccc3ccccc3c2)C(N)=O)NC1=O [D-Phe-Cys-Tyr-D-Trp-Lys-Abu-Cys-Nal-NH] (H-[dF]CY[dW]K[Abu]C[2Nal]-NH2; disulfide 2-7) |
| 0.005 | C[C@@H](O)[C@@H]1NC(=O)[C@H](CCCCN)NC(=O)[C@@H](Cc2c[nH]c3ccccc23)NC(=O)[C@H](Cc2c[nH]c3ccccc23)NC(=O)[C@H](Cc2ccccc2)NC(=O)CCCCCCNC(=O)[C@H](Cc2ccccc2)NC1=O [L-362855] (cyclo([Ahp]FW[dW]KTF)) |
| 51 | C[C@@H](Oc1ccccc1)[C@@H]1NC(=O)[C@H](CCCCN)NC(=O)[C@@H](Cc2c[nH]c3ccccc23)NC(=O)[C@H](Cc2ccccc2)NCCCCCCNC1=O [c[Aha-Phe-D-Trp-Lys-Thr(Bzl)]] |
| 1000 | C[C@@H](O)[C@@H]1NC(=O)[C@H](CCCCN)NC(=O)[C@@H](Cc2c[nH]c3ccccc23)NC(=O)[C@H](Cc2ccccc2)NC(=O)CCCCCCNC1=O [c[Aha-Phe-D-Trp-Lys-Thr]] (cyclo([Ahp]F[dW]KT)) |
| 405 | C[C@H](O)[C@H]1NC(=O)[C@H](CCCCN)NC(=O)[C@@H](Cc2c[nH]c3ccccc23)NC(=O)[C@@H](Cc2ccccc2)NC(=O)[C@@H](C)N(C)C(=O)[C@@H](Cc2ccccc2)N(C)C1=O [N-Methylcyclo(D-Ala-D-Phe-D-Trp-L-Lys-D-Thr-N-methyl-D-Phe-)] (cyclo(K[dT][dNMeF][dNMeA][dF][dW])) |
